Ends that are not written are not given here. Peptide text beside a SMILES is read from it. * marks the point of attachment. BODIPYFLEthylmaleimide = Cc1cc(C)n2c1C=C1C=CC(CCC(=O)NCCN3C(=O)CC(*)C3=O)=[N+]1[B-]2(F)F; BODIPY = not defined here; Cam = NC(=O)C*
How the values were obtained:
lymphocytes B = assay: Cytotoxicity by MTS assay, microscope observation and FACS; conditions: for Cytotoxicity MTS Assay: MTS cell proliferation assay (Promega); for cellular proportion of cell death by FACS: pre-B lymphocytes, 20 μM
[1] = Kd and cooperativity indice of NLM peptides by Hill coefficient calculation; type: binding; conditions: for Kd: Hill equation fit, read-out: dissociation constant Kd
Description: The present inventors compared NLM-DR to the corresponding NLM peptide by measuring the respective cooperativity indices, which evidence an advantage of NLM-DR mutated peptide over the wild-type.
The calculation of the “cooperativity indice” by means of Hill coefficient is based on the following formula Boundmax×L^n/(KD^n+L^n)
Boundmax is the maximum concentration of the bound ligand,
L is the concentration of the free ligand,
n is the cooperativity indice and
KD, is the affinity constant of the ligand by the protein.
If these values were to be compared to those obtained from the curves without accounting for cooperativity, the affinity of NLM-DR peptide would be 75 times higher than the affinity of wild-type NLM peptide.

[2] = system: LPS-induced NF-κB activation in 70Z/3-C3 cells; assay: NF-κB inhibition assay, first procedure (NF-κB dependent β-galactosidase reporter, LPS stimulation); type: cell-based, murine; conditions: for effect on LPS-induced NF-κB activation (in words): 20 μM peptide, 2 h, then 5 h LPS; for effect on LPS-induced NF-κB activation of peptides not fused to antennapedia (in words): 2 h peptide, then 3 h LPS (FIG. 3D)
Description: The resulting cell line, 70Z3-C3, was incubated for 2 hours in the absence or in the presence of 20 μM of antennapedia peptide (Ant), or BODIPY-labeled antennapedia peptide (BODIPY-Ant), or BODIPY-labeled antennapedia peptide coupled to CC2 (BODIPY-Ant-CC2) or LZ (BODIPY-Ant-LZ) peptides, After peptide internalization, cells were treated for 5 hours with LPS (3 μg/ml, (+) in left panel) or untreated (right panel and (−) in left panel) and the NF-κB activity was measured by β-galactosidase assay. […] Cells were treated as in (A) but with different concentration of peptide as indicated. The potential of each peptide to inhibit LPS-induced NF-κB activation was measured by determining the IC50 value that correspond to 50% inhibition of LPS-induced NF-κB activation as compared to the control (no peptide) (C). […] Control (no peptide) or CC2, or LZ peptides, with (BODIPY-ANT-CC2, BODIPY-ANT-LZ) or without the antennapedia sequence at the N-terminus (CC2, LZ) were incubated for 2 hours with 70Z3-C3 cells followed with (+) or without (−) the LPS-treatment for 3 hours. NF-κB activity was then measured by β-galactosidase assay.
In a first procedure 2.2×10^5 70Z/3-C3 cells in 220 μl of RPMI 1640 supplemented with 10% fetal calf serum (FCS) and 50 μM β-mercaptoethanol were placed in a 96-well plate and incubated with various concentrations of peptide (0 to 20 μM) at 37° C. in 5% CO2 incubator. After two hours an equal portion (100 μl) of each cell sample transferred in two wells containing each 10^5 cells. One aliquot of cells was then treated for 5 hours with lipopolysaccharides from Salmonella abortus (Sigma) at 0.5 μg/ml final concentration, and the other one left-treated. After 5 hours, cells were centrifuged at 400×g for 5 min at room temperature and the cell pellets were washed three times with cold PBS (250 μl) by centrifugation. Cells were then lysed in the lysis buffer (25 mM tris-phosphate buffer at pH 7.8 containing 8 mM magnesium chloride, 1 mM dithioerythreitol, 1% Triton X-100, 15% glycerol and a protease inhibitor mixture (Roche)), and samples were centrifuged at 4° C. for 20 min to clarify the lysate. The supernatant was then kept on ice, and 30 μl was then assayed to measure the β-galactosidase activity with a plate luminometer (Berthold) using the galacton-star as chemiluminescent substrate (BD Biosciences Clontech, Bronstein et al., 1989). Background of reaction was measured by mixing for 1 hour 30 μl of lysis buffer with the reaction buffer (196 μl) and the galacton-star substrate (4 μl) provided by BD Biosciences.

70Z/3-C3 cells = assay: FACS analysis of cellular uptake of BODIPY-labeled peptides; type: cell-based, murine; conditions: 2 μM BODIPY-peptide, 2 h at 37° C.
Description: All experiments were performed in duplicates.
The uptake of BODIPY labeled NEMO peptides into living cells were monitored by fluorescence activated cell sorting (FACS) which is a conventional tool used to quantify cellular internalization.
Then present inventors next investigated the kinetic and concentration dependency of cellular uptake for the Ant-CC2 BODIPY peptide keeping in mind that the transduction of other NEMO peptides should occur in a similar fashion (FIGS. 2B and 2C).

[3] = system: human retinoblastoma cell lines Y79; type: cell-based; conditions: for Y79 cell died: 5 μM
Description: FIG. 8: Cell Death Induced in the Retinoblastoma Cell Line Y79 by Ant-CC2 and Ant-LZ Peptides Rb cell line Y79 were treated with various concentration of the Ant-CC2 (WT) (filled squares) or Ant-CC2 (Mu) (open squares) (A), or Ant-LZ (WT) (filled circles), or Ant-LZ (Mu) (open circles) (B), or Ant peptide (open triangle) (C) for 3 hours (A, B) or 16 hours (C). Cell survival was then evaluated using the MTS assay as described in “Materials and methods”
The detection of cell death was performed using the MTS assay provided by Promega (CellTiter 96® AQueous one solution cell proliferation assay). Briefly, 0.3×10^6 Y79 cells in 450 μl were treated with 50 μl of the wild type Ant-CC2 and Ant-LZ peptides (0.1 to 20 μM) or their mutants Ant-CC2 (Mu), Ant-LZ (Mu) or the Ant or left untreated in serum-free RPMI medium at 37° C. After an incubation of […], an aliquot of the cell suspension (200 μl, 0.12×10^6 cells), was then transferee in 96-well plates and mixed with the MTS solution (40 μl) containing the MTS compound and the phenazine ethosulfate. Two hours after, the quantity of formazan produced by viable cells was measured using an automated microplate reader (Bio-TeK Instruments, INC) at 490 nm absorbance. Cell survival was observed under microscope and was estimated as a percentage of the value of untreated controls. The background of the reaction was determined by mixing the MTS solution with cell-free RPMI medium. To increase the sensitivity of the cell death assay, the present inventors used peptides devoid of BODIPY-labeling because the absorption spectra of the fluorophor overlaps with that of the formazan product. All experiments were repeated twice and each experiment condition was repeated in duplicate wells in each experiment.
Given that specific NF-κB inhibition may trigger apoptosis of cancer cells, the present inventors examined the effects of both cell-permeable Ant-LZ and Ant-CC2 peptides on human retinoblastoma cell viability. In these experiments, the present inventors used NEMO-derived polypeptides without a N-terminal BODIPY labeling to prevent any interference with the MTS assay (see “Materials and Methods”). […] The effect of the Ant-LZ peptide on cell death was stronger than that of the Ant-CC2. This induction of cell death was significant since Rb cell survival was 20% and 65% with the Ant-LZ and the Ant-CC2 peptides respectively when cancer cells were treated for 3 hours at a 20 μM concentration. […] In contrast, 80% and 55% of Y79 cell died in the presence of Ant-LZ and Ant-CC2 respectively at 5 μM concentration (FIG. 8C).

[4] = longer treatment (FIG. 8C, 16 hours)

B-CRRRRRRRLKAQAKIYKARFQAERHAREK [BODIPY-R7-NLM-DR] (CRRRRRRRLKAQADIYKARFQAERHAREK; not fully specified (N-terminus))
Cytotoxicity Cell morphology FACS (lymphocytes B): no
Cytotoxicity Cell morphology Microscope (lymphocytes B): no

NLM: corresponding wild type NLM peptide covering the same 21 amino acid range as NLM-DR (LKAQADIYKADFQAERHAREK-NH2; not fully specified (N-terminus))
Kd [1]: 240 µM

LKAQADIYKARFQAERHAREK [NLM-DR]
Kd [1]: 170 µM
affinity of NLM-DR peptide relative to wild-type NLM peptide ([1]; values compared without accounting for cooperativity): 75 times

B-CRQIKIWFQNRRMKWKK ({BODIPY}-CRQIKIWFQNRRMKWKK; reading uncertain) [BODIPY-Ant, reference compound]
effect on LPS-induced NF-κB activation (in words) [2]: same level of NF-κB activation as the control

Ant-LZ (Mu): mutant Ant-LZ devoid of BODIPY-labeling (sequence of SEQ ID NO: 8) (Ac-CRQIKIWFQNRRMKWKKLKAQADIYKADFQAERHAREKLVEKKEYSQEQLEQSQREFNKL-NH2; not fully specified (residue 1))
proportion of cells transduced (70Z/3-C3 cells): 100%

LKAQADIYKADFQAERHAREKLVEKKEYLQEQLEQLQREFNKL [LZ (WT)]
effect on LPS-induced NF-κB activation of peptides not fused to antennapedia (in words) [2]: same level of activation as the control

Ant: third helix of the Antennapedia/penetratin protein, internalization peptide (SEQ ID NO: 1), without BODIPY label (CRQIKIWFQNRRMKWKK) [reference compound]
effect on LPS-induced NF-κB activation (in words) [2]: same level of NF-κB activation as the control
effect on cell survival (in words) ([3]; Y79 cells, longer treatment (FIG. 8C, 16 hours)): did not affect cell survival

Ac-CRQIKIWFQNRRMKWKKLKAQADIYKADFQAERHAREKLVEKKEYLQEQLEQLQREFNKL-NH2 [Ant-LZ]
proportion of cells transduced (70Z/3-C3 cells): 100%
Y79 cell died [3, 4]: 80%

B-CRRRRRRRLKAQAKIYKARFQAERHAREK [BODIPY-R9-NLM-DR] (CRRRRRRRRRLKAQADIYKARFQAERHAREK; not fully specified (N-terminus))
Cytotoxicity Cell morphology FACS (lymphocytes B): no
Cytotoxicity MTS Assay (lymphocytes B): no
Cytotoxicity Cell morphology Microscope (lymphocytes B): no

SKGMQLEDLRQQLQQAEEALVAKQELIDKLKEEAEQHKIV [CC2 (WT)]
effect on LPS-induced NF-κB activation of peptides not fused to antennapedia (in words) [2]: same level of activation as the control

B-CRQIKIWFQNRRMKWKKLAQADIYKARFQAERHAREK (CRQIKIWFQNRRMKWKKLKAQADIYKARFQAERHAREK; not fully specified (N-terminus)) [BODIPY-Ant-NLM-DR]
Cytotoxicity Cell morphology FACS (lymphocytes B): +
Cytotoxicity MTS Assay (lymphocytes B): no
Cytotoxicity Cell morphology Microscope (lymphocytes B): +

Ac-C(Cam)RQIKIWFQNRRMKWKKSKGMQLEDLRQQLQQAEEALVAKQELIDKLKEEAEQHKIV-NH2 [Ant-CC2]
cellular proportion of cell death by FACS (lymphocytes B; absence of stimuli): 9%
cellular proportion of cell death by FACS (lymphocytes B; after LPS stimulation): 13%
proportion of cells transduced (70Z/3-C3 cells): 100%
Y79 cell died [3, 4]: 55%

CC[C@H](C)[C@H](NC(=O)[C@H](CC(=O)O)NC(=O)[C@H](C)NC(=O)[C@H](CCC(N)=O)NC(=O)[C@H](C)NC(=O)[C@H](CCCCN)NC(=O)[C@H](CC(C)C)NC(=O)[C@H](CCCNC(=N)N)NC(=O)[C@H](CCCNC(=N)N)NC(=O)[C@H](CCCNC(=N)N)NC(=O)[C@H](CCC(N)=O)NC(=O)[C@H](CCCNC(=N)N)NC(=O)[C@H](CCCNC(=N)N)NC(=O)[C@H](CCCCN)NC(=O)[C@H](CCCCN)NC(=O)[C@H](CCCNC(=N)N)NC(=O)CNC(=O)[C@H](Cc1ccc(O)cc1)NC(=O)[C@H](CSC1CC(=O)N(CCNC(=O)CCC2=[N+]3C(=Cc4c(C)cc(C)n4[B-]3(F)F)C=C2)C1=O)NC(C)=O)C(=O)N[C@@H](Cc1ccc(O)cc1)C(=O)N[C@@H](CCCCN)C(=O)N[C@@H](C)C(=O)N[C@@H](CCCNC(=N)N)C(=O)N[C@@H](Cc1ccccc1)C(=O)N[C@@H](CCC(N)=O)C(=O)N[C@@H](C)C(=O)N[C@@H](CCC(=O)O)C(=O)N[C@@H](CCCNC(=N)N)C(=O)N[C@@H](Cc1c[nH]cn1)C(=O)N[C@@H](C)C(=O)N[C@@H](CCCNC(=N)N)C(=O)N[C@@H](CCC(=O)O)C(=O)N[C@@H](CCCCN)C(N)=O (stereo partly shown) [BODIPY-TAT-NLM-DR] (Ac-C(BODIPYFLEthylmaleimide)YGRKKRRQRRRLKAQADIYKARFQAERHAREK-NH2)
Cytotoxicity Cell morphology FACS (lymphocytes B): no
Cytotoxicity MTS Assay (lymphocytes B): no
Cytotoxicity Cell morphology Microscope (lymphocytes B): no

Ant-CC2 (Mu): mutant Ant-CC2 devoid of BODIPY-labeling (sequence of SEQ ID NO: 4) (Ac-CRQIKIWFQNRRMKWKKSKGMQLEDLRQQGQQAEEAGVAKQELGDKLKEEAEQHKIV-NH2; not fully specified (residue 1))
proportion of cells transduced (70Z/3-C3 cells): 100%
induction of cell death (in words) ([3]; Y79 cells, 3 hours, mutant peptides): did not induce concentration cell death
